Test results from PubChem BioAssay (NCI).
Several values for one entry are separate records, joined by “and”; a condition that tells them apart may be missing. Equal entries are not always repeated.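 Method: 48-hour compound exposure of cells in 96-well plates, five concentrations, linear interpolation of endpoints. GI50 is the concentration that inhibits growth by half. The concentration for full growth arrest is given as TGI.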

What was measured:
Experiment in all cases: inhibition of tumour cell growth, NCI panel, 48 h
[1] = test system: COLO 205 colon
[2] = test system: EKVX NSCLC
[3] = test system: HCC-2998 colon
[4] = test system: HOP-62 NSCLC
[5] = test system: HOP-92 NSCLC
[6] = test system: MOLT-4 leukemia
[7] = test system: NCI-H522 lung
[8] = test system: RXF 393 renal
[9] = test system: SF-268 CNS
[10] = test system: SK-MEL-2 melanoma

| Compound | GI50 [1] | TGI [1] [µM] | GI50 [2] [µM] | TGI [2] [µM] | GI50 [3] | TGI [3] | GI50 [4] | TGI [4] [µM] | GI50 [5] | TGI [5] [µM] | GI50 [6] [µM] | TGI [6] [µM] | GI50 [7] | TGI [7] [µM] | GI50 [8] [µM] | TGI [8] [µM] | GI50 [9] | TGI [9] | GI50 [10] [µM] | TGI [10] [µM] |
| --- | --- | --- | --- | --- | --- | --- | --- | --- | --- | --- | --- | --- | --- | --- | --- | --- | --- | --- | --- | --- |
| COc1ccc(/C(COc2ccc3oc(-c4ccccc4)cc(=O)c3c2)=N\O)cc1 | 0.606 µM | 19.2 | 0.229 | 1.91 | 0.145 µM | 0.983 µM | 1.72 µM | > 50 | > 31.2 µM | > 50 | 0.678 | > 50 | 1.87 µM | 39.5 | 47.4 | > 50 | 0.162 µM | 1.36 µM | 32.1 | > 50 |
| COc1cc(Nc2ncc(-c3ccccc3)o2)cc(OC)c1 | > 25 µM | > 25 | > 25 | > 25 | > 25 µM | > 25 µM | > 25 µM | > 25 | > 25 µM | > 25 | > 18.7 | > 25 | > 25 µM | > 25 | 8.4 | > 25 | > 25 µM | > 25 µM | > 25 | > 25 |
| CC(=O)Nc1c(Nc2ccccc2)[nH]c(C)nc1=S | – | > 100 | – | > 100 | – | > 100 µM | – | > 100 | – | > 100 | – | > 100 | – | > 100 | – | > 100 | – | > 100 µM | – | > 100 |
| Cc1ccccc1NC(=O)c1sc2nc(C)c(C(=O)/C=C/c3ccccc3)cc2c1N | 1.65 µM | 5.27 | 3.86 | 11.1 | 0.913 µM | 1.67 µM | 1.15 µM | 2.7 | 1.48 µM | 7.26 | 1.57 | > 50 | 1.15 µM | 3.42 | 0.821 | 1.6 | 1.2 µM | 3.58 µM | 1.81 | 8.59 |
| CC1(C)CNc2cc(NC(=O)c3cccnc3NCc3ccncc3)ccc21 | 34.2 µM | > 100 | 23.6 | > 95.2 | 39 µM | > 100 µM | 50.9 µM | > 100 | 19.4 µM | 80.6 | 23.8 | > 100 | 25.7 µM | > 95.4 | 11.7 | 64.9 | 28.1 µM | > 100 µM | 17.2 | 47.8 |
| c1ccc2c3c([nH]c2c1)[C@H]1C2CCCCN2CN1CC3 (stereo partly specified) | – | > 100 | – | > 100 | – | > 100 µM | – | > 100 | – | > 100 | – | > 100 | – | > 100 | – | > 100 | – | > 100 µM | – | > 100 |
| CNC(=O)c1c(NC(=O)c2ccc(C(C)(C)C)cc2)sc2c(CN(C)C)c(O)ccc12 | 2.1 µM | 4.3 | – | – | 1.34 µM | 2.94 µM | – | – | 1.2 µM | 2.74 | 1.28 | 3.73 | – | – | 1.67 | 3.33 | 1.77 µM | 3.46 µM | 2.1 | 4.28 |
| Nc1ccc(C2=CC(c3ccc(Cl)cc3)N3C=CSC3=N2)cc1 (stereo unspecified) | 8.59 µM | 20.6 | – | – | 1.83 µM | 3.61 µM | 4.38 µM | 16.4 | 17.7 µM | 72.4 | 4.03 | 89.7 | 3.51 µM | 11.3 | 2.03 | 4.18 | 11.3 µM | 30.7 µM | 26.3 | 59.3 |
| CN(C)CCNC(=O)c1cccc2cc3c(Cl)cccc3nc12 | – | > 29.3 | – | 9.58 | – | 3.66 µM | – | 2.55 | – | 4.28 | – | 0.556 | – | > 100 | – | 3.62 | – | – | – | 3.5 |
| COC(=O)[C@H](Cc1cnc[nH]1)NC(=O)[C@@H](NC(=O)Nc1cc(C(F)(F)F)cc(C(F)(F)F)c1)C(C)C | 15.2 µM | 29.4 | – | – | 15.9 µM | 30.7 µM | 19 µM | 33.7 | 5.33 µM | – | 12.5 | 32.2 | 13.1 µM | 27 | 13.6 | 27.5 | 15.2 µM | 31.1 µM | – | – |
| COc1ccc(-c2nc(-c3ccc(C)cc3)cn3ccnc23)cc1 | 2.87 µM | > 50 | 4.38 | > 50 | 11.8 µM | > 50 µM | 13.9 µM | > 50 | 16.2 µM | > 50 | 22.3 | > 50 | – | – | 2.41 | 18.5 | 3.06 µM | > 50 µM | 20.8 | > 50 |
| COC12C=C/C(=C(/C(=O)OCc3ccccn3)C(=O)CCCCCCCCC3(OC)C=C/C(=C(/C(=O)OCc4ccccn4)C(=O)CCCCCCCC1)O3)O2 | – | – | 0.614 | 3.72 | 0.212 µM | 0.518 µM | 0.318 µM | 1.06 | 1.65 µM | 3.54 | 0.301 | > 100 | 0.345 µM | 1.71 | 0.192 | 0.357 | 1.12 µM | 4.81 µM | 1.18 | 3.85 |
| CN(C)C(=N/O)/C(=N\O)N(C)C | – | – | – | > 100 | – | > 100 µM | – | > 100 | – | > 100 | – | > 100 | – | > 100 | – | > 100 | – | > 100 µM | – | > 100 |
| C=C/C=C/[C@@H](O)CC(=C)C[C@H]1OC2[C@H](C)[C@@H](OC(=O)C[C@H]3C[C@H](OC(C)=O)C[C@@]4(C[C@@](C)(O)C[C@H](CC(=C)[C@@H](C)[C@H](OC(C)=O)[C@H](C)C(=O)C[C@@H]5C[C@H](OC)CC6(C[C@@H](O)C[C@H](/C=C\CCC[C@H]7O[C@](O)(C=C[C@H]7C)[C@H]2O)O6)O5)O4)O3)[C@@H]1O | 0.000359 µM and < 0.0025 µM | < 0.0025 | – | > 25 | 0.000591 µM and < 0.0025 µM | 0.00272 µM and < 0.0025 µM | 0.000252 µM and 0.0025 µM | > 25 | 0.0227 µM and 0.0025 µM | 15.1 | – | – | 0.000825 µM and < 0.0025 µM | < 0.0025 | 0.0025 | 0.0542 | 0.00406 µM and 0.0025 µM | 0.0413 µM and 0.277 µM | 0.0025 | 0.00308 |
| CCc1ccc(CCC(=O)Nc2ncc(Cc3ccc(Cl)cc3)s2)o1 | – | – | 0.527 | > 100 | 0.812 µM | > 100 µM | 0.623 µM | > 100 | 4.61 µM | > 100 | 0.53 | > 100 | 0.302 µM | 53.9 | 0.226 | 0.675 | 1.68 µM | > 100 µM | 0.684 | > 100 |
| NC(=O)c1cc([N+](=O)[O-])c(Cl)c([N+](=O)[O-])c1Cl | 0.369 µM | 1.47 | 2.08 | 4.85 | 1.82 µM | 3.45 µM | 1.75 µM | 3.16 | 1.84 µM | 3.45 | – | – | 0.162 µM | 0.319 | 1.15 | 2.39 | 1.64 µM | 3.07 µM | 1.71 | 3.16 |
| COc1ccc2c(c1)c(-c1nc(-c3c[nH]c4ccncc34)cs1)cn2C | – | – | 1.76 | 3.4 | 1.85 µM | 3.35 µM | 1.82 µM | 3.45 | 1.64 µM | 3.33 | – | – | 1.65 µM | 3.25 | 1.49 | 2.88 | 1.77 µM | 3.37 µM | 1.84 | 3.4 |
| CCC(C)[C@H](NC(=O)Nc1cc(C(F)(F)F)cc(C(F)(F)F)c1)C(=O)N[C@@H](Cc1cn(C)cn1)C(=O)OC (stereo partly specified) | 1.4 µM | 1.89 | – | – | 0.696 µM | 1.35 µM | 0.919 µM | 1.82 | 1.31 µM | 1.89 | 0.873 | 2.24 | 0.584 µM | 1.15 | 0.523 | 0.98 | 0.61 µM | 1.16 µM | 1.4 | 1.89 |
| CC1=C(/C=C/C(C)=C/C2CC(N(C)C)=CC(=O)O2)C(C)(C)CCC1 (stereo unspecified) | – | 27.2 | – | 27.9 | – | 26.7 µM | – | 31 | – | 31.1 | – | 19.9 | – | – | – | 31.1 | – | 40.6 µM | – | 27.4 |
| O=C1CC(c2cccc(F)c2)Nc2cc3c(cc21)OCO3 (stereo unspecified) | < 0.01 µM | – | – | > 100 | < 0.01 µM | < 0.01 µM | 2.65 µM | > 100 | 30.8 µM | > 100 | – | < 0.01 | – | 0.0602 | – | 0.0943 | 1.53 µM | > 100 µM | – | – |
| CC(=O)c1c2c(cc3c1CC1(C3)Cc3cc4c(c(C(C)=O)c3C1)CCC4)CCC2 | – | > 100 | – | – | – | > 100 µM | – | > 100 | – | > 100 | – | > 100 | – | > 100 | – | > 100 | – | > 100 µM | – | – |
| O=C1C=CC=C/C1=C1/SC(c2ccccc2)=C(O)N1c1ccccc1 | – | > 100 | – | > 100 | – | > 100 µM | – | – | – | > 100 | – | – | – | > 100 | – | > 100 | – | > 100 µM | – | > 100 |
